Calls of active or inactive are those of the source. How the calls were made is not given here.
target: 3C-like protease (Infectious bronchitis virus, as filed; assay for SARS-CoV 3CLpro); test: SARS 3CLpro protease inhibition IC50 – biochemical, fluorescence, dose response, late-stage follow-up (AID 488958); conditions: recombinant 3CLpro, fluorogenic peptide cleavage

Compound | IC50
CC(C)(C)NC(=O)C(c1cccnc1)N(C(=O)c1ccc(Cl)o1)c1ccc(C(C)(C)C)cc1 (stereo unspecified) | 5.2 µM
CCC(C)c1ccc(N(C(=O)c2ccco2)[C@H](C(=O)NC(C)(C)C)c2cccnc2)cc1 (stereo partly specified) | 2.3 µM
CC(C)(C)NC(=O)C(c1cccnc1)N(C(=O)c1ncco1)c1ccc(C(C)(C)C)cc1 (stereo unspecified) | inactive
CC(C)(C)NC(=O)C(c1cncnc1)N(C(=O)c1cnc[nH]1)c1ccc(C(C)(C)C)cc1 (stereo unspecified) | inactive
CC(=O)Nc1ccc(N(C(=O)Cn2nnc3ccccc32)C(C(=O)NC(C)(C)C)c2cccc(F)c2)cc1 (stereo unspecified) | 6.3 µM
CC(=O)Nc1ccc(N(C(=O)Cn2nnc3ccccc32)C(C(=O)NCc2ccccc2)c2cccc(F)c2)cc1 (stereo unspecified) | 2.9 µM

— PubChem BioAssay AID488958 (The Scripps Research Institute Molecular Screening Center, 2010)
